{"source": "patent US20050209193A1", "about": "“Method for enhanced photodynamic therapy” (priority 2003, published 2005)", "key": {"skin of the subject": {"system": "skin of the subject", "assay": "Determination of effective treatment time for PDT/IPL/RF rejuvenation therapy after ALA application", "type": "in vivo, human", "text": "ALA, was applied to the skin of the subject. The light used for PDT was IPL comprising a variety of wavelengths, with an intensity of 26 J. PDT/IPL/RF was applied at various time points following ALA application. […] The increase in efficacy leveled off at hours 5 and 6.\nA 4-hour treatment with ALA was required for significant efficacy of PDT/IPL/RF. A time course of this length may be accompanied by increases in erythema and other side effects. In order to minimize side effects, it was determined that a 1-hour treatment was preferred. The 1-hour treatment requires repeated administrations for maximum efficacy, but prevents skin breakdown. With its potential for increased side effects, the 4-hour treatment should be reserved for severe premalignant cases only."}, "[1]": {"system": "skin of patients (keratoses, sun damage, rosacea, melasma, wrinkles)", "assay": "Treatment of patients with PDT/IPL/RF after ALA application", "type": "in vivo, human", "description": "Four patients were treated with a combination of PDT, IPL, and RF. ALA was applied to the patients at time 0.\nPatient 1 received one PDT/RF/IPL peel treatment at full energy (26 J) 4 hours after application of ALA.\nPatients 2, 3, and 4 received four sessions of PDT/RF/IPL photofacial treatments at full energy (26 J) 1 hour after application of ALA."}, "[2]": {"details": "Patient 1, one PDT/RF/IPL peel treatment at 26 J, 4 hours after ALA"}}}
{"smiles": "NCC(=O)CCC(=O)O", "note": "[ALA, 5-aminolevulinic acid]", "values": [{"measurement": "efficacy of PDT/IPL/RF versus standard IPL/RF alone", "setting": "skin of the subject; PDT/IPL/RF applied 15 minutes after ALA application, IPL 26 J, human test subject", "value": "no more efficacious than standard IPL/RF alone"}, {"measurement": "efficacy of PDT/IPL/RF over RF alone", "setting": "skin of the subject; PDT/IPL/RF applied 30 minutes after ALA application, IPL 26 J", "value": "minimal increase in efficacy"}, {"measurement": "efficacy of PDT/IPL/RF over RF alone", "setting": "skin of the subject; PDT/IPL/RF applied 45 minutes after ALA application, IPL 26 J", "value": "minimal increase in efficacy"}, {"measurement": "efficacy of PDT/IPL/RF", "setting": "skin of the subject; PDT/IPL/RF applied 1 hour after ALA application, IPL 26 J", "value": "noticeable increase in efficacy"}, {"measurement": "efficacy of PDT/IPL/RF", "setting": "skin of the subject; PDT/IPL/RF applied 2 hours after ALA application, IPL 26 J", "value": "noticeable increase in efficacy"}, {"measurement": "efficacy of PDT/IPL/RF", "setting": "skin of the subject; PDT/IPL/RF applied 4 hours after ALA application, IPL 26 J", "value": "largest increase of any point in time"}, {"measurement": "efficacy of PDT/IPL/RF", "setting": "skin of the subject; PDT/IPL/RF applied 5 hours after ALA application, IPL 26 J", "value": "leveled off"}, {"measurement": "efficacy of PDT/IPL/RF", "setting": "skin of the subject; PDT/IPL/RF applied 6 hours after ALA application, IPL 26 J", "value": "leveled off"}, {"measurement": "ALA treatment time required for significant efficacy of PDT/IPL/RF", "setting": "skin of the subject; human test subject", "value": 4, "unit": "h"}, {"measurement": "effect on lentigines", "setting": "[1]; 4-hour treatment, Patient 1", "value": "selective destruction of lentigines"}, {"measurement": "effect on atypia and keratoses", "setting": "[1]; [2]", "value": "significant darkening and slough of atypia and keratoses"}, {"measurement": "effect on wrinkles", "setting": "[1]; [2]", "value": "diminution of wrinkles"}, {"measurement": "skin rejuvenation", "setting": "[1]; [2]", "value": "generalized skin rejuvenation"}, {"measurement": "effect on sun damage, rosacea, and melasma", "setting": "[1]; Patients 2, 3 and 4, four sessions PDT/RF/IPL photofacial at 26 J, 1 hour after ALA", "value": "decrease in sun damage, rosacea, and melasma"}]}
